Columns and labels:
growing piglets = experiment: Growth, food intake and food conversion of weaned piglets on supplemented feed; format: in vivo, pig
Description: (§1) Evaluate the effect of supplementation with shea sterols on growth and post-weaning diarrhoea of growing piglets.
(§2) One day before the start of the experiment the pigs are weighed. The piglets are distributed over the different treatment groups with the aim to establish group equality in weight, sex. Piglets smaller than 5 kg or piglets with physical disturbances are excluded from the study.
(§3) At a mean age of 27 days the pigs are weaned and randomly assigned to the 3 experimental groups and are then treated for 35 days. Pigs are fed ad libitum. The first 14 days post weaning the pigs are fed a prestarter diet. Subsequently, the piglets are changed in a period of 3 days to a starter diet. Throughout the 35 day study period the food is supplemented with either:
(§4) 1. without antimicrobial growth enhancers
(§5) 2. with antimicrobial growth enhancers (AMGB: 40 ppm avilamycine)
(§6) 3. with shea oleine (0.4%)
(§7) The shea oleine contained 8 wt % sterols and pentacyclic terpenes. The shea oleine was obtained by fractionation of the extract from shea nuts into a stearine and oleine fraction, followed by partial bleaching and deodorising.
Piglets were weighed at the start of the experiment, at 14 days and at day 34.

[1] = system: post-weaning diarrhoea of growing piglets; experiment: Incidence of post-weaning diarrhoea in weaned piglets on supplemented feed; format: in vivo, pig
Description: as §1, §2, §3, §4, §5, §6, §7

[2] = from weaning till 14 days post weaning
[3] = from weaning till 14 days post weaning, p < 0.001

Q: What does the source list for avilamycine [AMGB]?
A: EW-conversion (growing piglets; from day 1 till day 34): 1.64; EW-intake per day (growing piglets; from day 1 till day 34): 0.57; food conversion (growing piglets; from day 1 till day 34): 1.49; food intake (growing piglets; from day 1 till day 34): 0.52 kg/day; growth rate (growing piglets; from day 1 till day 34): 352 g/day; weight (growing piglets; from day 1 till day 34): 20.9 kg; EW-conversion (growing piglets; from day 15 till day 34): 1.70; EW-intake per day (growing piglets; from day 15 till day 34): 0.79; food conversion (growing piglets; from day 15 till day 34): 1.55; food intake (growing piglets; from day 15 till day 34): 0.72 kg/day; growth rate (growing piglets; from day 15 till day 34): 468 g/day; weight (growing piglets; from day 15 till day 34): 10.5 kg; EW-conversion (growing piglets; [2]): 1.43; food conversion (growing piglets; [2]): 1.28; growth rate (growing piglets; [2]): 185 g/day; EW-intake per day (growing piglets; [3]): 0.26; food intake (growing piglets; [3]): 0.23 kg/day; weight at weaning (growing piglets; piglets, at weaning (start of experiment)): 7.7 kg; Incidence of diarrhoea: no diarrhoea ([1]; First week post-weaning): 81.2%; Incidence of diarrhoea: past (paste-like) diarrhoea ([1]; First week post-weaning): 17.6%; Incidence of diarrhoea: watery diarrhoea ([1]; First week post-weaning): 1.2%; Incidence of diarrhoea: past (paste-like) diarrhoea ([1]; Second week post-weaning): 9.5%; Incidence of diarrhoea: watery diarrhoea ([1]; Second week post-weaning): 0.2%; Incidence of diarrhoea: no diarrhoea ([1]; Second week post-weaning, p < 0.1): 90.3%; Incidence of diarrhoea: past (paste-like) diarrhoea ([1]; Third week post-weaning): 9.0%; Incidence of diarrhoea: watery diarrhoea ([1]; Third week post-weaning): 0.5%; Incidence of diarrhoea: no diarrhoea ([1]; Third week post-weaning, p < 0.01): 90.5%; number of animals required treatment ([1]; veterinary treatment during the study): 23
